{
  "source": "patent US5770575A",
  "about": "“Nipecotic acid derivatives as antithrombotic compounds” (Ortho Pharmaceutical Corporation, priority 1995, dated 1998)",
  "key": {"GPIIb/IIIa": {"biological_target": "T1, GPIIb/IIIa (Homo sapiens, UniProt P05106+P08514)", "T1 sequence (P08514 32-887 limits assumed)": "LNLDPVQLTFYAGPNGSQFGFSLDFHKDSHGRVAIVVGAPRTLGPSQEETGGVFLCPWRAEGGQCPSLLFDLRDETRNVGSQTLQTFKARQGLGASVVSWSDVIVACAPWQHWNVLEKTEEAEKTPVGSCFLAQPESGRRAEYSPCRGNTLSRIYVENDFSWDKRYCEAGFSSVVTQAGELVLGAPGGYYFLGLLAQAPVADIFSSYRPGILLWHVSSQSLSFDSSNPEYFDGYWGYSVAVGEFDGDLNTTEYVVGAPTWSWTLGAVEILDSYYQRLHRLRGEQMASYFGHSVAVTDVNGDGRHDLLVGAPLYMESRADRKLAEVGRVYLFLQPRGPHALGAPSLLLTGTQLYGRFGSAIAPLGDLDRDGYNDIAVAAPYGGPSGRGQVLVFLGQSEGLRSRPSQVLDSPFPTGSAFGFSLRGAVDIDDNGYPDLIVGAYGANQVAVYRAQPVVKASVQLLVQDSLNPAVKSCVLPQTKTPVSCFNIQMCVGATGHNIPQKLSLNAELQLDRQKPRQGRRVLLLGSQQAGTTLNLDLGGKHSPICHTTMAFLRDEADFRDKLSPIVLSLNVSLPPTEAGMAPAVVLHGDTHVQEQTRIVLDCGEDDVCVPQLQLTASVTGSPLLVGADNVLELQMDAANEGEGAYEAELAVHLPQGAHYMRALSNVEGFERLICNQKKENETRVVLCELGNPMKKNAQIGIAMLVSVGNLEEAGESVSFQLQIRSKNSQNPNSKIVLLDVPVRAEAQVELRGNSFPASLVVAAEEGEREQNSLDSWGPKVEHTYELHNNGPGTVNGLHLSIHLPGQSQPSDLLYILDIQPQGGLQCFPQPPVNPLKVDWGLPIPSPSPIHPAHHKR", "T1 sequence (P05106 27-788)": "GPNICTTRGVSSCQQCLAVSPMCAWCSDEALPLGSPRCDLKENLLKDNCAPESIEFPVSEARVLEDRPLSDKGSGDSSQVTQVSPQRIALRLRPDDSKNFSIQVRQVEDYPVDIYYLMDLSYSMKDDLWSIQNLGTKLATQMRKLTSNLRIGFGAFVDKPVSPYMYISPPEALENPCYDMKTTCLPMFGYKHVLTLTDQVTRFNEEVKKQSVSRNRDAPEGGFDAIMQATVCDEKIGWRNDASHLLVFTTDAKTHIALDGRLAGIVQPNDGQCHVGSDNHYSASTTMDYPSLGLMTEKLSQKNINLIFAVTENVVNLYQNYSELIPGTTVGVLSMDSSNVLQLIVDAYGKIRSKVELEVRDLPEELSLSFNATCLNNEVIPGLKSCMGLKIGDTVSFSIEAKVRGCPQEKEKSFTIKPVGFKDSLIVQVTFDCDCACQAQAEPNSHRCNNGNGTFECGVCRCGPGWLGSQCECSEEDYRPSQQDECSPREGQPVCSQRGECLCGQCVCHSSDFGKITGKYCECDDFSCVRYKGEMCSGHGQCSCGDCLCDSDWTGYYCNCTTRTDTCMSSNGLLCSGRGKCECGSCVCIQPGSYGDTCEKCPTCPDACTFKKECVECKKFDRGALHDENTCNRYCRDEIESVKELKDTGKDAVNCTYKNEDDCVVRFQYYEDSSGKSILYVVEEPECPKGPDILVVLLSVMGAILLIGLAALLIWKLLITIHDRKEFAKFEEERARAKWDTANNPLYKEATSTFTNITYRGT", "assay": "In vitro solid phase purified glycoprotein IIb/IIIa binding assay (biotinylated fibrinogen)", "conditions": "Table I", "source_text": "The compounds of the present invention interrupt binding of fibrinogen to platelet glycoprotein IIb/IIIa (GPIIb/IIIa) and thereby inhibit platelet aggregation. […] Because the final, common pathway in normal platelet aggregation is the binding of fibrinogen to activated, exposed GPIIb/IIIa, inhibition of this binding represents a plausible antithrombotic approach. The receptor is activated by stimuli such as ADP, collagen, and thrombin, exposing binding domains to two different peptide regions of fibrinogen: α-chain Arg-Gly-Asp (RGD) and γ-chain 400-411.\nIN VITRO SOLID PHASE PURIFIED GLYCOPROTEIN IIB/IIIA BINDING ASSAY.\nThe plate is covered and incubated overnight at 4° C. The GPIIb/IIa solution is discarded and 150 μl of 5% BSA is added and incubated at RT for 1-3 h. The plate is washed extensively with modified Tyrodes buffer. Biotinylated fibrinogen (25 μl/well) at 2× final concentration is added to the wells that contain the test compounds (25 μl/well) at 2× final concentration. The plate is covered and incubated at RT for 2-4 h. Twenty minutes prior to incubation completion, one drop of Reagent A (Vecta Stain ABC Horse Radish Peroxidase kit, Vector Laboratories, Inc.) and one drop Reagent B are added with mixing to 5 mL modified Tyrodes buffer mix and let stand. The ligand solution is discarded and the plate washed (5×200 μl/well) with modified Tyrodes buffer. Vecta Stain HRP-Biotin-Avidin reagent (50 μl/well, as prepared above) is added and incubated at RT for 15 min. The Vecta Stain solution is discarded and the wells washed (5×200 μl/well) with modified Tyrodes buffer. […] The absorbance is read at 490 nm."}, "gel-filtered platelets": {"system": "gel-filtered platelets", "assay": "In vitro inhibition of thrombin-induced gel-filtered platelet aggregation assay", "type": "cell-based", "conditions": "*Indicates IC50, read-out: Pl. Aggr. IC50", "description": "IN VITRO INHIBITION OF THROMBIN-INDUCED GEL-FILTERED PLATELET AGGREGATION ASSAY.\nThe percentage of platelet aggregation is calculated as an increase in light transmission of compound treated platelet concentrate vs. control treated platelet concentrate. Blood is obtained from drug free, normal donors into tubes containing 0.13M sodium citrate. Platelet rich plasma (PRP) is collected by centrifugation of whole blood at 200×g for 10 min at 25° C. The PRP (5 mL) is gel filtered through Sepharose 2B (bed volume 50 mL), and the platelet count is adjusted to 2×10^7platelets per sample. The following constituents are added to a siliconized cuvette: concentrated platelet filtrate and Tyrode's buffer (0.1 4M NaCl, 0.0027M KCl, 0.01 2M NaHCO3, 0.76 mM Na2 HPO4, 0.0055M glucose, 2 mg/mL BSA and 5.0 mM HEPES @ pH 7.4) in an amount equal to 350 μl, 50 μl of 20 mM calcium and 50 μl of the test compound. Aggregation is monitored in a BIODATA aggregometerforthe 3 min following the addition of agonist (thrombin 50 μl of 1 unit/mL)."}, "occlusive thrombus": {"system": "occlusive thrombus", "assay": "In vivo dog study: thrombus formation in extracorporeal arteriovenous shunt", "set-up": "species or system mongrel dogs", "conditions": "for Thrombus Weight: mean ± SEM", "description": "Compound 16 was tested in the following in vivo dog model to determine its therapeutic efficacy\n(§1) Adult mongrel dogs of either sex 9-13 kg) were anesthetized with pentobarbital sodium (35 mg/kg, i.v.) and ventilated with room air via an endotracheal tube (12 strokes/min, 25 ml/kg). For arterial pressure determination, the left carotid artery was cannulated with a saline-filledpolyethylene catheter (PE-200) and connected to a Statham pressure transducer (P231D, Oxnard, Calif.). Mean arterial diastolic blood pressure. Heart rate was monitored using a cardiotachometer (Biotach, Gould\n(§2) Electronics, Cleveland, Ohio) triggered from a lead 11 electrocardiogram generated by limb leads. A jugular vein was cannulated (PE-200) for drug administration. The left femoral artery and the left femoral vein were cannulated with silicon treated (Sigmacote, Sigma Chemical Co., St. Louis, Mo.), saline filled polyethylene tubing (PE-200) and connected with a 5 cm section of silicon treated tubing (PE-240) to form an extracorporeal arteriovenous shunt (A-V). Shunt patency was monitored using a Doppler flow system (model VF-1, Crystal Biotech Inc., Hopkinton, Mass.) and proximal to the locus of the shunt. All parameters were monitored continuously on a polygraph recorder (Gould TA-4000, Oxnard Calif.) at a paper speed of 10 mm/min.\n(§3) On completion of a 15 min post surgical stabilization period, an occlusive thrombus was formed by the introduction of a thrombogenic surface (O braided silk thread, 5 cm in length, Ethicon Inc., Somerville, N.J.) into the shunt. Four consecutive 15 min shunt periods were employed with the first consisting of a vehicle infusion followed by increasing concentrations of Compound 16, SC-47643, saline with DMF or saline with citric acid administered as a bolus followed by an infusion beginning 5 min. before insertion of the thrombogenic surface and continued for an additional 15 min. AT the end of each 15 min shunt period the silk was carefully removed and weighed. A fifth shunt immediately following the total cumulative treatment dose was used to assess patency duration as indicated by time to total occlusion. Thrombus weight was calculated by subtracting the weight of the silk prior to placement from the total weight of the silk on removal from the shunt. Arterial blood was withdrawn prior to the first shunt and after each shunt period for determination of whole blood collagen-induced platelet aggregation, thrombin-induced platelet degranulation (platelet ATP release), prothrombin time and platelet count. Template bleeding time was performed beginning 10 min. into each shunt period.\n(§4) Compound 16;1+0.03, 3+0.1 and 5+0.3 mg/kg, i.v. (bolus)+mg/kg/hr,i.v. (infusion) was solubilized in saline+DMF (5%) and serially diluted to achieve appropriate concentrations expressed as parent compound.\n(§5) All values are expressed as the mean and standard error of the mean. Statistical significance of the change was assessed based on change from baseline suing analysis of variance and Student's t-test. Differences were considered significant when P<0.05."}, "platelet aggregation": {"system": "platelet aggregation", "assay": "In vivo dog study: gamma thrombin- and collagen-induced platelet aggregation", "set-up": "species or system mongrel dogs", "conditions": "mean ± SEM", "description": "as §1, §2, §3\nWhole blood platelet aggregation and ATP release were measured using a lumi-aggregation and ATP release were measured using a lumi-aggregometer (Chrono-log, Havertown, Pa.) by recording the change in impedance (platelet aggregation) and light transmission (ATP-release) through a stirred (1000 rpm) suspension of whole blood maintained at 37 C.\nas §4, §5"}},
  "data": [
    {"smiles": "CC(C)(C)OC(=O)N[C@H](CCCCN)C(=O)N1CCCC(C(=O)NCCC(=O)O)C1", "note": "(stereo partly drawn) [Compound 3, Nα-Boc-D-Lys-Nip-γ-Ala--OH]", "values": [
      {"measurement": "IC50", "setting": "GPIIb/IIIa", "value": 21, "unit": "nM"},
      {"measurement": "IC50", "setting": "gel-filtered platelets", "value": 600, "unit": "nM"}
    ]},
    {"smiles": "NCCCCCC(=O)N1CCCC(C(=O)NCCC(=O)O)C1", "note": "(stereo not drawn) [Compound 5, N-(Nε- nocaroyl)-Nip-β-Ala-OH]", "values": [
      {"measurement": "IC50", "setting": "GPIIb/IIIa", "value": 13, "unit": "nM"},
      {"measurement": "IC50", "setting": "gel-filtered platelets", "value": 1600, "unit": "nM"}
    ]},
    {"smiles": "CC(C)(C)OC(=O)N[C@H](CCCCN)C(=O)N1CCC[C@@H](C(=O)NCCC(=O)O)C1", "note": "[Compound 16, Nα-Boc-D-Lys-R-(-)-Nip-β-Ala-OH]", "values": [
      {"measurement": "Incidence of occlusive thrombus formation (animals per group)", "setting": "occlusive thrombus; Period 2, Dose 1 (1+0.03 mg/kg iv bolus + mg/kg/hr infusion)", "value": "2/4"},
      {"measurement": "Incidence of occlusive thrombus formation (animals per group)", "setting": "occlusive thrombus; Period 3, Dose 2 (3+0.1)", "value": "1/4"},
      {"measurement": "Incidence of occlusive thrombus formation (animals per group)", "setting": "occlusive thrombus; Period 4, Dose 3 (5+0.3)", "value": "0/4"},
      {"measurement": "Incidence of occlusive thrombus formation (animals per group)", "setting": "occlusive thrombus; Post Treatment, monitored for 60 min", "value": "3/4"},
      {"measurement": "Thrombus Weight", "setting": "occlusive thrombus; Shunt 2 - Dose 1 (1+0.03)", "value": "52 ± 3", "unit": "mg"},
      {"measurement": "Thrombus Weight", "setting": "occlusive thrombus; Shunt 3 - Dose 2 (3+0.1), *P < 0.05", "value": "27 ± 1", "unit": "mg"},
      {"measurement": "Thrombus Weight", "setting": "occlusive thrombus; Shunt 4 - Dose 3 (5+0.3), *P < 0.05", "value": "19 ± 2", "unit": "mg"},
      {"measurement": "Collagen-Induced Plat Agg (% inhib)", "setting": "platelet aggregation; 2-Dose 1 (1+0.03)", "value": "14 ± 3", "unit": "% inhib"},
      {"measurement": "G-Thrombin-Induced Plat Agg (% inhib)", "setting": "platelet aggregation; 2-Dose 1 (1+0.03)", "value": "8 ± 5", "unit": "% inhib"},
      {"measurement": "Collagen-Induced Plat Agg (% inhib)", "setting": "platelet aggregation; 3-Dose 2 (3+0.1), *P < 0.05", "value": "99 ± 1", "unit": "% inhib"},
      {"measurement": "G-Thrombin-Induced Plat Agg (% inhib)", "setting": "platelet aggregation; 3-Dose 2 (3+0.1), *P < 0.05", "value": "34 ± 8", "unit": "% inhib"},
      {"measurement": "Collagen-Induced Plat Agg (% inhib)", "setting": "platelet aggregation; 4-Dose 3 (5+0.3), *P < 0.05", "value": "100 ± 0", "unit": "% inhib"},
      {"measurement": "G-Thrombin-Induced Plat Agg (% inhib)", "setting": "platelet aggregation; 4-Dose 3 (5+0.3), *P < 0.05", "value": "72 ± 8", "unit": "% inhib"},
      {"measurement": "G-Thrombin-Induced Plat Agg (% inhib)", "setting": "platelet aggregation; 30 min post", "value": "21 ± 8", "unit": "% inhib"},
      {"measurement": "Collagen-Induced Plat Agg (% inhib)", "setting": "platelet aggregation; 30 min post, *P < 0.05", "value": "82 ± 13", "unit": "% inhib"},
      {"measurement": "G-Thrombin-Induced Plat Agg (% inhib)", "setting": "platelet aggregation; 60 min post", "value": "11 ± 5", "unit": "% inhib"},
      {"measurement": "Collagen-Induced Plat Agg (% inhib)", "setting": "platelet aggregation; 60 min post, *P < 0.05", "value": "57 ± 14", "unit": "% inhib"}
    ]}
  ]
}
